Patent US20240024273A1, “TOPICAL ADMINISTRATION OF 2-(DIETHYLAMINO)ETHYL 2-(4-ISOBUTYLPHENYL)PROPRIONATE FOR TREATMENT OF DISEASES” (TECHFIELDS PHARMA CO., LTD., priority 2020, published 2024)

Key:
[1] = tested on: osteoarthritis of the knee; test: Second Phase 2 study: WOMAC (VAS) pain subscale score; type: in vivo, human
Text: (§1) This is a Phase 2, multicenter, randomized, double blind (within dose), Ibuprofen-placebo controlled, parallel group, dose range finding study to evaluate the efficacy, safety, and PK of 2-(diethylamino)ethyl 2-(4-isobutylphenyl)propionate spray in adult subjects with clinically symptomatic OA of the knee. For subjects with bilateral knee pain, both knees will be treated, but the most symptomatic knee (ie, the most painful knee as measured by the Western Ontario and McMaster University Osteoarthritis Index [WOMAC® 3.1] pain subscale score at Screening) will be designated as the target knee for efficacy analyses. For subjects with unilateral knee pain, only the symptomatic (target) knee will be treated.
(§2) The VAS version of the WOMAC will be used for the Primary and Secondary Efficacy Endpoints. Efficacy endpoints will be assessed at Screening and Baseline (Day 1) and at the Week 2, Week 4, Week 8, and Week 12/EOS visits.
The Primary Efficacy Endpoint is the change from Baseline in the WOMAC (VAS) pain subscale score for the target knee at […] of treatment.
(§3) 4.9.2. Secondary Efficacy Endpoints: • 1. Change from Baseline in the WOMAC (VAS) pain subscale score for the target knee at 2, 8, and 12 weeks of treatment; • 2. Change from Baseline in the WOMAC (VAS) stiffness subscale scores for the target knee and WOMAC (VAS) functional ability subscale scores at 2, 4, 8, and 12 weeks of treatment; • 3. Change from Baseline in the overall WOMAC (VAS) score at 2, 4, 8, and 12 weeks of treatment; • 4. Subject's global assessment of disease status of the target knee at 2, 4, 8, and 12 weeks of treatment; • 5. Subject's global assessment of response to therapy of the target knee at 2, 4, 8, and 12 weeks of treatment; • 6. Amount of rescue medication (acetaminophen) consumed per day for target knee pain.
The Primary Efficacy Endpoint is change from Baseline in the WOMAC (VAS) pain subscale score for the target knee at 4 weeks of treatment, and will be analyzed using an analysis of covariance (ANCOVA). Treatment will be included as a fixed class effect and WOMAC Baseline pain subscale score as covariates. The primary comparisons of interest will be the difference between active Group A (4.375 mg 2-(diethylamino)ethyl 2-(4-isobutylphenyl)propionate/knee) and combined placebo, active Group B (8.75 mg 2-(diethylamino)ethyl 2-(4-isobutylphenyl)propionate/knee) and combined placebo, and active Group C (17.5 mg 2-(diethylamino)ethyl 2-(4-isobutylphenyl)propionate/knee) and combined placebo.

[2] = tested on: osteoarthritis of the knee; test: Second Phase 2 study: WOMAC difficulty performing daily activities (functional ability) subscale score; type: in vivo, human
Text: as §1, §2, §3
The Secondary Efficacy Endpoints, change from Baseline in the WOMAC subscale scores for pain, stiffness, and functional ability, and overall WOMAC score at 2, 4, 8, and 12 weeks of treatment, will be analyzed using the same methods as for the Primary Efficacy Endpoint.

[3] = 17.5 mg/knee BID, Week 12, first 130 subjects
[4] = 4.375 mg/knee BID (n = 23), first 130 subjects
[5] = 8.75 mg/knee BID (n = 24), first 130 subjects
[6] = 17.5 mg/knee BID (n = 19), first 130 subjects
[7] = Week 12, 4.375 mg/knee BID (n = 23), first 130 subjects
[8] = Week 12, 8.75 mg/knee BID (n = 24), first 130 subjects
[9] = Week 12, 17.5 mg/knee BID (n = 19), first 130 subjects
[10] = all subjects, 4.375 mg/knee BID, n = 49, Week 12
[11] = all subjects, 8.75 mg/knee BID, n = 54, Week 12
[12] = all subjects, 17.5 mg/knee BID, n = 52, Week 12

CCN(CC)CCOC(=O)C(C)c1ccc(CC(C)C)cc1 (stereo not drawn) [2-(diethylamino)ethyl 2-(4-isobutylphenyl)propionate]
WOMAC pain, difference from oral ibuprofen (3×400 mg/day) [1, 3]: −14.5 mm | WOMAC pain, difference from placebo [1, 3]: −15.0 mm | WOMAC Pain Subscale Score, Day 1, Avg. ([1]; Avg. of all patients, blinded, Middle Dose (4 spray/knee, 17.5 mg/knee) Cohort, Day 1): 61.0 | WOMAC Pain Subscale Score, Follow-up, Avg. ([1]; Avg. of all patients, blinded, Middle Dose (4 spray/knee, 17.5 mg/knee) Cohort, Follow-up): 38.9 | WOMAC Pain Subscale Score, Week 2, Avg. ([1]; Avg. of all patients, blinded, Middle Dose (4 spray/knee, 17.5 mg/knee) Cohort, Week 2): 46.0 | WOMAC Pain Subscale Score, Week 4, Avg. ([1]; Avg. of all patients, blinded, Middle Dose (4 spray/knee, 17.5 mg/knee) Cohort, Week 4): 40.5 | WOMAC Pain Subscale Score, Week 8, Avg. ([1]; Avg. of all patients, blinded, Middle Dose (4 spray/knee, 17.5 mg/knee) Cohort, Week 8): 35.9 | WOMAC Pain Subscale Score, Week 12, Avg. ([1]; Avg. of all patients, blinded, Middle Dose (4 spray/knee, 17.5 mg/knee) Cohort, Week 12): 34.5 | WOMAC Pain Subscale Scores, Baseline (LS Mean) [1, 4]: 60.0 mm | WOMAC Pain Subscale Scores, Baseline (LS Mean) [1, 5]: 61.0 mm | WOMAC Pain Subscale Scores, Baseline (LS Mean) [1, 6]: 64.1 mm | WOMAC Pain Subscale Scores, % of improvement from Oral Ibuprofen [1, 7]: −9.6% | WOMAC Pain Subscale Scores, % of improvement from Placebo [1, 7]: −8.7% | WOMAC Pain Subscale Scores, % of improvement from baseline [1, 7]: −41.8% | WOMAC Pain Subscale Scores, Changes from Baseline (LS Mean) [1, 7]: −25.7 mm | WOMAC Pain Subscale Scores, Different from oral ibuprofen (LS Mean) [1, 7]: −4.0 mm | WOMAC Pain Subscale Scores, Different from placebo (LS Mean) [1, 7]: −4.3 mm | WOMAC Pain Subscale Scores, Week 12 (LS Mean) [1, 7]: 34.3 mm | WOMAC Pain Subscale Scores, % of improvement from Oral Ibuprofen [1, 8]: −13.2% | WOMAC Pain Subscale Scores, % of improvement from Placebo [1, 8]: −12.3% | WOMAC Pain Subscale Scores, % of improvement from baseline [1, 8]: −45.4% | WOMAC Pain Subscale Scores, Changes from Baseline (LS Mean) [1, 8]: −27.7 mm | WOMAC Pain Subscale Scores, Different from oral ibuprofen (LS Mean) [1, 8]: −6.1 mm | WOMAC Pain Subscale Scores, Different from placebo (LS Mean) [1, 8]: −6.6 mm | WOMAC Pain Subscale Scores, Week 12 (LS Mean) [1, 8]: 33.3 mm | WOMAC Pain Subscale Scores, % of improvement from Oral Ibuprofen [1, 9]: −24.3% | WOMAC Pain Subscale Scores, % of improvement from Placebo [1, 9]: −23.4% | WOMAC Pain Subscale Scores, % of improvement from baseline [1, 9]: −56.5% | WOMAC Pain Subscale Scores, Changes from Baseline (LS Mean) [1, 9]: −36.2 mm | WOMAC Pain Subscale Scores, Different from oral ibuprofen (LS Mean) [1, 9]: −14.5 mm | WOMAC Pain Subscale Scores, Different from placebo (LS Mean) [1, 9]: −15.0 mm | WOMAC Pain Subscale Scores, Week 12 (LS Mean) [1, 9]: 27.9 mm | WOMAC Pain Subscale Scores, % of improvement from Oral Ibuprofen [1, 10]: −0.7% | WOMAC Pain Subscale Scores, % of improvement from Placebo [1, 10]: −5.2% | WOMAC Pain Subscale Scores, % of improvement from baseline [1, 10]: −41.9% | WOMAC Pain Subscale Scores, Changes from Baseline (LS Mean) [1, 10]: −25.6 mm | WOMAC Pain Subscale Scores, Week 12 (LS Mean) [1, 10]: 35.5 mm | WOMAC Pain Subscale Scores, % of improvement from Oral Ibuprofen [1, 11]: −4.9% | WOMAC Pain Subscale Scores, % of improvement from Placebo [1, 11]: −9.4% | WOMAC Pain Subscale Scores, % of improvement from baseline [1, 11]: −46.1% | WOMAC Pain Subscale Scores, Changes from Baseline (LS Mean) [1, 11]: −28.6 mm | WOMAC Pain Subscale Scores, Different from oral ibuprofen (LS Mean) [1, 11]: −3.2 mm | WOMAC Pain Subscale Scores, Different from placebo (LS Mean) [1, 11]: −6.0 mm | WOMAC Pain Subscale Scores, Week 12 (LS Mean) [1, 11]: 33.4 mm | WOMAC Pain Subscale Scores, % of improvement from Oral Ibuprofen [1, 12]: −9.8% | WOMAC Pain Subscale Scores, % of improvement from Placebo [1, 12]: −14.3% | WOMAC Pain Subscale Scores, % of improvement from baseline [1, 12]: −51.0% | WOMAC Pain Subscale Scores, Changes from Baseline (LS Mean) [1, 12]: −31.7 mm | WOMAC Pain Subscale Scores, Different from oral ibuprofen (LS Mean) [1, 12]: −6.3 mm | WOMAC Pain Subscale Scores, Different from placebo (LS Mean) [1, 12]: −9.1 mm | WOMAC Pain Subscale Scores, Week 12 (LS Mean) [1, 12]: 30.5 mm | WOMAC functional ability, difference from oral ibuprofen [2, 3]: −15.6 | WOMAC functional ability, difference from placebo [2, 3]: −19.1 | WOMAC Difficulty Performing Daily Activities Subscale Score, Day 1, Avg. ([2]; Avg. of all patients (blinded), Low Dose (2 spray/knee, 8.75 mg/knee) Cohort, Day 1): 60.4 | WOMAC Difficulty Performing Daily Activities Subscale Score, Follow-up, Avg. ([2]; Avg. of all patients (blinded), Low Dose (2 spray/knee, 8.75 mg/knee) Cohort, Follow-up): 40.1 | WOMAC Difficulty Performing Daily Activities Subscale Score, Week 2, Avg. ([2]; Avg. of all patients (blinded), Low Dose (2 spray/knee, 8.75 mg/knee) Cohort, Week 2): 49.8 | WOMAC Difficulty Performing Daily Activities Subscale Score, Week 4, Avg. ([2]; Avg. of all patients (blinded), Low Dose (2 spray/knee, 8.75 mg/knee) Cohort, Week 4): 44.0 | WOMAC Difficulty Performing Daily Activities Subscale Score, Week 8, Avg. ([2]; Avg. of all patients (blinded), Low Dose (2 spray/knee, 8.75 mg/knee) Cohort, Week 8): 41.1 | WOMAC Difficulty Performing Daily Activities Subscale Score, Week 12, Avg. ([2]; Avg. of all patients (blinded), Low Dose (2 spray/knee, 8.75 mg/knee) Cohort, Week 12): 39.8 | WOMAC Difficulty Performing Daily Activities Subscale Scores, Baseline (LS Mean) [2, 4]: 60.2 mm | WOMAC Difficulty Performing Daily Activities Subscale Scores, Baseline (LS Mean) [2, 5]: 61.6 mm | WOMAC Difficulty Performing Daily Activities Subscale Scores, Baseline (LS Mean) [2, 6]: 63.9 mm | WOMAC Difficulty Performing Daily Activities Subscale Scores, % of improvement from Oral Ibuprofen [2, 7]: −10.9% | WOMAC Difficulty Performing Daily Activities Subscale Scores, % of improvement from Placebo [2, 7]: −14.2% | WOMAC Difficulty Performing Daily Activities Subscale Scores, % of improvement from baseline [2, 7]: −43.9% | WOMAC Difficulty Performing Daily Activities Subscale Scores, Changes from Baseline (LS Mean) [2, 7]: −26.4 mm | WOMAC Difficulty Performing Daily Activities Subscale Scores, Different from oral ibuprofen (LS Mean) [2, 7]: −4.8 mm | WOMAC Difficulty Performing Daily Activities Subscale Scores, Different from placebo (LS Mean) [2, 7]: −8.3 mm | WOMAC Difficulty Performing Daily Activities Subscale Scores, Week 12 (LS Mean) [2, 7]: 33.8 mm | WOMAC Difficulty Performing Daily Activities Subscale Scores, % of improvement from Oral Ibuprofen [2, 8]: −12.5% | WOMAC Difficulty Performing Daily Activities Subscale Scores, % of improvement from Placebo [2, 8]: −15.9% | WOMAC Difficulty Performing Daily Activities Subscale Scores, % of improvement from baseline [2, 8]: −45.6%
